Measured values as given in patent US20030044413A1, “Methods of limiting apoptosis of cells” (Regents of the University of Minnesota, priority 1998, published 2003).

What was measured:
cytochrome c = test: Cytochrome c release from isolated mitochondria after MPT; set-up: species or system rat; conditions: substance alone on isolated mitochondria
Protocol: Mitochondria isolation. […] In short, animals were sacrificed by exsanguination under ether anesthesia and the livers removed and rinsed in normal saline. Approximately 10 g of minced liver was homogenized at a speed of 800 rpm using 6 complete up and down strokes with a speed controlled mechanical skill drill and a teflon pestle (Tri-R Model K41, Tri-R Instruments, Rockville Center, N.Y.) in an ice-cold solution of 70 mM sucrose, 220 mM mannitol, 1 mM EGTA and 10 mM HEPES, pH 7.4 as a 10% (wt/vol) homogenate. The homogenate was centrifuged at 600×g for 10 min at 4° C. in an SS-34 rotor in a Sorvall RC5C centrifuge (Sorvall Instruments, Newtown, Conn.), and the postnuclear supernatant was centrifuged at 7,000×g for 10 min at 4° C. […] The pellet was resuspended in 2 mL of homogenate buffer, and 1 mL of the resuspended pellet was carefully layered onto a 35-mL self-generating gradient containing 0.25 M sucrose, 1 mM EGTA and percoll (Pharmacia Fine Chemicals, Piscataway, N.J.) (75:25, vol/vol). The mitochondria were purified by centrifugation at 43,000×g for 30 min at 4° C. using a Beckman Ti60 rotor and a Beckman ultracentrifuge model L8-55 (Beckman Instruments, Inc., Schaumburg, Ill.). The clear supernatant solution removed and the lower turbid layer was resuspended in 30 mL of wash buffer containing 0.1 M KCl, 5 mM 3-(N-morpholino)-propane sulfonic acid (MOPS), and 1 mM EGTA, at pH 7.4 and centrifuged at 7,000×g for 10 min at 4° C. The resulting mitochondria pellet was washed in wash buffer two times. A final wash was carried out in chelex-100-treated buffer (Bio-Rad Laboratories, Richmond, Va.; 200-400 mesh, potassium form) without EGTA. The pellet was suspended in 4 mL of chelex-100-treated resuspension buffer containing 125 mM sucrose, 50 mM KCl, 5 mM HEPES, and 2 mM KH2PO4. The usual yield of mitochondria was approximately 25 mg of protein per gram of liver tissue. Mitochondria were used for experiments within 3 h of isolation. Aliquots were removed for examining the purity of the mitochondria preparation.
Measurement of MPT and determination of cytochrome c content in supernatants and mitochondrial pellets after MPT. The MPT was assessed using a spectrophotometric assay measuring high amplitude rapid changes in mitochondria volume. Mitochondria (1 mg protein) were incubated in 1 ml of chelex-100-treated respiration buffer (0.1 M NaCl, 10 mM MOPS, pH 7.4) for 10 min at 25° C. and swelling was monitored at 540 nm in a Beckman DU 64 spectrophotometer. […] Basal values of mitochondria absorbance were measured for 5 min, and the optical density was monitored for an additional 5 min after addition 200 μM DCA or 80 μM phenylarsine oxide (PhAsO; Sigma Chemical Co.). […]

HuH-7 cells [1] = test: Okadaic acid-induced apoptosis, HuH-7 cells; assay type: cell-based, human; conditions: 48 h
Protocol: Incubation of cells with ethanol, TGF-β1, anti-Fas antibody or okadaic acid. Freshly isolated rat hepatocytes were cultured for 3 h as described above and then incubated with William's E medium supplemented with either 0.5% ethanol, 50 μM UDCA, ethanol plus UDCA, or no addition (control) for 2 h and 4 h. HuH-7 cells were incubated with Dulbecco's medium supplemented with either 1 nM TGF-β1 (R & D Systems, Minneapolis, Minn.), 100 μM UDCA, TGF-β1+UDCA, or no addition (control) for 24 h, 48 h, and 72 h. Hep G2 cells were incubated with Dulbecco's medium supplemented with either 0.5 μg/ml of anti-Fas antibody CH-11 (Upstate Biotechnology, Inc., Lake Placid, N.Y.), 100 μM UDCA, CH-11+UDCA, or no addition for 48 h. Both HuH-7 cells and human osteogenic sarcoma Saos-2 cells were cultured in Dulbecco's medium supplemented with either 50 nM okadaic acid (Boehringer Mannheim Biochemicals, Inc, Indianapolis, Ind.), 100 μM UDCA, okadaic acid+UDCA, or no addition for 48 h. […]
Morphological evaluation of apoptosis. […] Fluorescence was visualized with a Zeiss standard fluorescence microscope (Carl Zeiss, Inc., Thornwood, N.Y.). […] Stained nuclei were scored by blind analysis and categorized according to the condensation and staining characteristics of chromatin. […] Three fields per dish of approximately 500 nuclei were counted; mean values are expressed as the percent of apoptotic nuclei.

hepatocytes = test: TUNEL assay in liver of rats fed bile acids; assay type: in vivo, rat; conditions: 10 days
Description: Animals and diets. Male 160-175 gram (g) Sprague-Dawley rats (Sprague-Dawley, Indianapolis, Ind.) were maintained on a 12-hour (h) light-dark cycle and fed standard laboratory chow ad libitum for 3 days. […] On day 10, the animals were sacrificed by exsanguination under ether anesthesia between 9 a.m. and 11 a.m. The livers were removed, rinsed in normal saline, and flash-frozen in liquid nitrogen. Liver tissue samples were embedded in OCT, and 5 μm-thick cryostat sections were cut and mounted on slides. […] All animals received human care in compliance with the Guide for the Care and use of Laboratory Animals, prepared by the National Academy of Sciences (NIH Publication No. 86-23, revised 1985). Terminal transferase-mediated dUTP-digoxigenin nick end labeling (TUNEL) assay. Digoxigenin-nucleotide residues were added to 3′-OH ends of double or single-stranded DNA by terminal deoxynucleotidyl transferase. Reactions were performed according to the manufacturer's recommendations (Oncor, Inc., Gaithersburg, Md.), and the specimens were then coversliped with Permount medium (Fischer Scientific, Inc., Itasca, Ill.) prior to analysis by phase-contrast microscopy using a Nikon microscope (Nikon, Inc., Melville, N.Y.). Photographs were taken using Kodak Ektar-1000 film (Eastman Kodak Co., Rochester, N.Y.).

HuH-7 cells [2] = test: DCA-induced apoptosis, Hoechst staining, HuH-7 cells; assay type: cell-based; conditions: for percent of apoptotic cells: 6 h
Description: Cell culture and preparation of rat primary hepatocytes. Rat primary hepatocytes were isolated from male Sprague-Dawley rats (200-250 g) by collagenase perfusion as described previously (Mariash et al., J. Biol. Chem, 261, 9583-9586 (1986)). Briefly, rats were aneshtesized with phenobarbitol and the livers were perfused with 0.05% collagenase. Hepatocyte suspensions were obained by passing digested livers through 0.125 mm gauze and washing cells in modified Eagles' medium (MEM, Life Technologies, Inc., Grand Island, N.Y.). […] After isolation, hepatocytes were resuspended in William's E medium (Life Technologies, Inc., Grand Island, N.Y.) supplemented with 26 mM sodium bicarbonate, 23 mM HEPES, 0.01 U/ml insulin, 2 mM L-glutamine, 10 nM dexamethasone, 5.5 mM glucose, 100 U/ml penicillin and 100 U/ml streptomycin and then 1.0×10^6 cells were plated on 35×10 mm […] tissue culture dishes (Becton Dickinson Labware, Lincoln Park, N.J.). The cells were maintained at 37° C. in a humidified atmosphere of 5% CO2 for 3 h. Plates were then washed with medium to remove dead cells, and medium containing 10% heat-inactivated FBS (55° C. for 30 min) was added (Atlanta Biologicals, Inc., Norcross, Ga.). Aliquots of 1.0×10^5 human (HuH-7) hepatoma cells were plated on 35×10 mm tissue culture dishes (Becton Dickinson Labware) and maintained at 37° C. in Dulbecco's MEM (Atlanta Biologicals, Inc.) supplemented with 10% FBS, 100 U/ml penicillin and 100 u/ml streptomycin for 3 h prior to incubation with bile acids.
Incubation of cells with bile acids. Freshly isolated rat hepatocytes were cultured for 3 h as described above and then incubated with William's E medium supplemented with either 50 μM DCA, 50 μM UDCA (Sigma Chemical Co., St. Louis, Mo.), their combination, or no bile acid (control), for 2 h, 4 h, and 6 h. HuH-7 cells cultured for 3 h as described above were incubated with Dulbecco's MEM medium supplemented with either 50 μM, 100 μM, 500 μM, or 1000 μM DCA, UDCA, DCA+UDCA, or no addition (control) for 6 h and 24 h. The medium was gently removed at the indicated time points and scored for nonviable cells by trypan blue dye exclusion. The attached cells were fixed for morphologic assessment of apoptotic changes.
Morphological evaluation of apoptosis. Morphology was performed as described previously (Oberhammer et al., Proc. Natl. Acad. Sci. USA 89, 5408-5412 (1992)). Briefly, after fixation (with 4% formaldehyde in PBS, pH 7.4, for 10 min at room temperature), the cells were incubated with Hoechst dye 33258 (Sigma Chemical Co.) at 5 μg/ml in PBS for 5 min, washed with PBS and mounted with PBS:glycerol (3:1, v/v). Fluorescence was visualized with a Zeiss standard fluorescence microscope (Carl Zeiss, Inc., Thornwood, N.Y.). Photographs were taken with Kodak Ektar-1000 film (Eastman Kodak Co.). Stained nuclei were scored by blind analysis and categorized according to the condensation and staining characteristics of chromatin. Normal nuclei were identified as noncondensed chromatin dispersed over the entire nucleus. Apoptotic nuclei were identified by condensed chromatin, contiguous to the nuclear membrane, as well as nuclear fragmentation of condensed chromatin. Three fields per dish of approximately 500 nuclei were counted; mean values are expressed as the percent of apoptotic nuclei.

[3] = rats fed chow with 0.4% bile acid

“TGF-β1: transforming growth factor β1, nonmembrane damaging inducer of apoptosis” was tested, and the “translocation of cytochrome c to the supernatants” value (cytochrome c) was “nor did they cause translocation of cytochrome c”.

For `C=C1[C@@H](O)[C@@H]2O[C@]3(CC[C@H](/C=C/[C@@H](C)[C@@H]4CC(C)=C[C@@]5(O[C@H](C[C@@](C)(O)C(=O)O)CC[C@H]5O)O4)O3)CC[C@H]2O[C@@H]1[C@@H](O)C[C@H](C)[C@H]1O[C@@]2(CCCCO2)CC[C@H]1C` [okadaic acid], the “translocation of cytochrome c to the supernatants” value (cytochrome c) was “nor did they cause translocation of cytochrome c” and the apoptosis induced (HuH-7 cells [1]; 50 nM okadaic acid) was > 30%.

For `C[C@H](CCC(=O)O)[C@H]1CC[C@H]2[C@@H]3[C@@H](O)C[C@@H]4C[C@H](O)CC[C@]4(C)[C@H]3CC[C@]12C` [UDCA, ursodeoxycholic acid], the “increase in TUNEL-positive liver cells from control values” (hepatocytes; [3]) was 2 fold, the apoptotic cells (HuH-7 cells [2]; 100 μM DCA + UDCA combination, 24 h) was 11.5±2.1% and the “increase in cell viability by coincubation with UDCA” value (HuH-7 cells [2]; DCA + UDCA, 24 h) was 44±7.1%. The “reduction of the apoptotic response” value (HuH-7 cells [1]; 50 nM okadaic acid + 100 μM UDCA) was > 80%.

`C[C@H](CCC(=O)O)[C@H]1CC[C@H]2[C@@H]3CC[C@@H]4C[C@H](O)CC[C@]4(C)[C@H]3C[C@H](O)[C@]12C` [DCA, deoxycholic acid] was tested, and the “change in TUNEL-positive cells” value (hepatocytes; FIG. 1 legend, 0.4% in chow) was “significant increase”, the “increase in TUNEL-positive liver cells from control values” (hepatocytes; [3]) was ~40 fold and the “liver cells with positive nuclear staining for fragmented DNA (TUNEL)” value (hepatocytes; [3]) was 11%. The “percent of apoptotic cells” value (HuH-7 cells [2]; 100 μM DCA) was 16.8%, the apoptotic cells (HuH-7 cells [2]; 100 μM DCA, 24 h) was 20±2.8% and the “percent of apoptotic cells” value (HuH-7 cells [2]; 1000 μM DCA) was 66.7%. For the same compound, the necrosis (HuH-7 cells [2]; elevated bile acid concentrations (up to 1000 μM DCA)) was “no apparent necrosis”.
